Data on four compounds can be found in patent publication US20070196866A1, “Modulators of ion channel trpa1” (IRM LLC, priority 2004, published 2007).

Test [1] in a line: Nociceptive behavior after intraplantar injection in mice. The note with it: wildtype mice, intraplantar, five minutes post-injection; cinnamaldehyde 5 mM and 16.4 mM. It counts as in vivo.
For test [2], the target named is T1, mTRPA1 (Mus musculus, UniProt Q8BLA8).
T1 construct: expressed in transfected cells; host or cells: CHO cells
As to the kind of experiment: Screen of cinnamaldehyde-like compounds in heterologous expression systems. It counts as cell-based. The note with it: even in millimolar concentrations.

Test [3] addresses T2, mouse TRPA1 (Mus musculus, UniProt Q8BLA8).
T2 construct: expressed in transfected cells; host or cells: CHO cells
As to the kind of experiment: FLIPR intracellular calcium assay, mouse TRPA1-expressing CHO cells. The test is classed as cell-based. In general terms: Calcium flux is commonly read through the fluorescence of an indicator in the cells.

Test [4] has as its system TRPV1. Nature of the test: FLIPR calcium assay, TRPV1-expressing CHO cells. The test is classed as cell-based. The note with it: 2 mM. An excerpt: We then tested these compounds against TRPM8 and TRPV1.
In test [5] the target is T1, mTRPA1. Nature of the test: Ratiometric calcium imaging of CHO cells expressing mTRPA1. It counts as cell-based.
In test [6] the test system is naïve CHO cells. As to the kind of experiment: Calcium response of naive CHO cells. It counts as cell-based. The note with it: alone. An excerpt:
Another downstream effect of PLC activity is the generation of Diacylglycerol (DAG). Therefore, we tested if l-Oleoyl-2-acetyl-sn-glycerol (OAG, a cell permeable analog of DAG) could activate TRPA1. […] OAG alone gives no response in naïve CHO cells. DAG can be converted to poly-unsaturated fatty acid (PUFAs) such as arachidonic acid (AA). […] AA can be converted to numerous metabolites, including prostaglandins. […] However, such a compound named 5,8,11,14-Eicosatetraynoic acid (ETYA) activated TRPA1- expressing CHO cells. Therefore, AA metabolism is not required for the activation of TRPA1.

The test system of test [7] is TRPV1. As to the kind of experiment: Calcium imaging of TRPV1-expressing CHO cells. It counts as cell-based.
Test [8] deals with adult rat DRG neurons. Nature of the test: Calcium imaging of cultured adult rat DRG neurons. It counts as cell-based. An excerpt:
To further test this hypothesis, and to find out if the pungent compounds described above activate TRPA1 specifically, we performed calcium imaging of adult rat DRG neurons in response to cold, menthol, cinnamaldehyde, allyl isothiocyanate, and bradykinin. […] To a large extent, cinnamaldehyde and menthol activated mutually exclusive populations of cold-responsive neurons, as our model would predict. Allyl isothiocyanate appeared less specific as it activated 63% of the cold-responsive population (including a large overlap with menthol) and 12% of the cold-insensitive population. We have used 1.6 times the EC50 values of cinnamaldehyde and allyl isothiocyanate to enable us to directly compare DRG response profiles to these compounds. […] There were no significant differences in profiles of cinnamaldehyde and allyl isothiocyanate between cultures in the presence of 1 and 100 ng/ml of NGF.
In addition to the pungent sensory compounds, we have shown that BK can activate TRPA1.
To test if garlic extracts and allicin specifically activate TRPA1 in native neurons, we performed calcium imaging of adult rat DRG neurons. […] Addition of allicin or garlic extract to cultured rat DRG neurons activated a specific population of neurons.

For test [9], the target named is T3, TRPA1 (Homo sapiens, UniProt O75762). As to the kind of experiment: FLIPR dose response, hTRPA1. The test is classed as cell-based. Further details: expressed in transfected cells.
Target sequence in this assay (O75762 whole entry): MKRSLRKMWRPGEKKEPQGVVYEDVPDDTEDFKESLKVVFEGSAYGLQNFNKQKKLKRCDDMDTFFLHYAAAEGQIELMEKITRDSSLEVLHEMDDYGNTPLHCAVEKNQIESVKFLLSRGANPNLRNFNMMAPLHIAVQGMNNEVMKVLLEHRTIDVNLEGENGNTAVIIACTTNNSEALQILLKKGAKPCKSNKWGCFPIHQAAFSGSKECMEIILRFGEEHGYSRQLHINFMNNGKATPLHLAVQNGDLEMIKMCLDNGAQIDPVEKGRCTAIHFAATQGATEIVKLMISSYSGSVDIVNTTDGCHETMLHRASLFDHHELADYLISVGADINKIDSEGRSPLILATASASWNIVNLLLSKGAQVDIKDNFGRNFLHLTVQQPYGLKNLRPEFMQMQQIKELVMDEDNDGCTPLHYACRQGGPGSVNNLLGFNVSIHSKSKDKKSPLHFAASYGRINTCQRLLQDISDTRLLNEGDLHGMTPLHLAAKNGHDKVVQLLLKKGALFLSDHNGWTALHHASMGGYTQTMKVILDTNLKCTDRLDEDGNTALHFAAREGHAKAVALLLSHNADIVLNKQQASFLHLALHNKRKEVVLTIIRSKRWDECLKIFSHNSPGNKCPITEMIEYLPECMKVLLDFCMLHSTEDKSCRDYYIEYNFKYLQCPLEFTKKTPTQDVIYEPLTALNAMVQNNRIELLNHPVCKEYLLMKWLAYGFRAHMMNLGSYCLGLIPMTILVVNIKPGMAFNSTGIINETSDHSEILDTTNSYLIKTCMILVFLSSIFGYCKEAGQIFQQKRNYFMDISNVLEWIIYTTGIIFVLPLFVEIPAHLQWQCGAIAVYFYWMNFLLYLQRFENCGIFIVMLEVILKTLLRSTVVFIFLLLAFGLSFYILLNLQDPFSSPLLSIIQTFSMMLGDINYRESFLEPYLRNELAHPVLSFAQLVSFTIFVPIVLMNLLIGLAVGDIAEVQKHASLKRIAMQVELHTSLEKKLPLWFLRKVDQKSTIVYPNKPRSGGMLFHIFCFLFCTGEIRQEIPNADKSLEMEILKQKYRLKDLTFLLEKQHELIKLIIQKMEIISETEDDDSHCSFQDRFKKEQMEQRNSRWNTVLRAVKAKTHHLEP
Test [10] deals with T3, TRPA1. As to the kind of experiment: Electrophysiological recording of TRPA1-expressing oocytes. The test is classed as cell-based. The note with it: 1 μM. Also noted: expressed in transfected cells; host or cells: oocytes.
Target sequence in this assay (O75762 whole entry, species assumed): as the sequence (O75762 whole entry) above

T2 sequence (Q8BLA8 whole entry): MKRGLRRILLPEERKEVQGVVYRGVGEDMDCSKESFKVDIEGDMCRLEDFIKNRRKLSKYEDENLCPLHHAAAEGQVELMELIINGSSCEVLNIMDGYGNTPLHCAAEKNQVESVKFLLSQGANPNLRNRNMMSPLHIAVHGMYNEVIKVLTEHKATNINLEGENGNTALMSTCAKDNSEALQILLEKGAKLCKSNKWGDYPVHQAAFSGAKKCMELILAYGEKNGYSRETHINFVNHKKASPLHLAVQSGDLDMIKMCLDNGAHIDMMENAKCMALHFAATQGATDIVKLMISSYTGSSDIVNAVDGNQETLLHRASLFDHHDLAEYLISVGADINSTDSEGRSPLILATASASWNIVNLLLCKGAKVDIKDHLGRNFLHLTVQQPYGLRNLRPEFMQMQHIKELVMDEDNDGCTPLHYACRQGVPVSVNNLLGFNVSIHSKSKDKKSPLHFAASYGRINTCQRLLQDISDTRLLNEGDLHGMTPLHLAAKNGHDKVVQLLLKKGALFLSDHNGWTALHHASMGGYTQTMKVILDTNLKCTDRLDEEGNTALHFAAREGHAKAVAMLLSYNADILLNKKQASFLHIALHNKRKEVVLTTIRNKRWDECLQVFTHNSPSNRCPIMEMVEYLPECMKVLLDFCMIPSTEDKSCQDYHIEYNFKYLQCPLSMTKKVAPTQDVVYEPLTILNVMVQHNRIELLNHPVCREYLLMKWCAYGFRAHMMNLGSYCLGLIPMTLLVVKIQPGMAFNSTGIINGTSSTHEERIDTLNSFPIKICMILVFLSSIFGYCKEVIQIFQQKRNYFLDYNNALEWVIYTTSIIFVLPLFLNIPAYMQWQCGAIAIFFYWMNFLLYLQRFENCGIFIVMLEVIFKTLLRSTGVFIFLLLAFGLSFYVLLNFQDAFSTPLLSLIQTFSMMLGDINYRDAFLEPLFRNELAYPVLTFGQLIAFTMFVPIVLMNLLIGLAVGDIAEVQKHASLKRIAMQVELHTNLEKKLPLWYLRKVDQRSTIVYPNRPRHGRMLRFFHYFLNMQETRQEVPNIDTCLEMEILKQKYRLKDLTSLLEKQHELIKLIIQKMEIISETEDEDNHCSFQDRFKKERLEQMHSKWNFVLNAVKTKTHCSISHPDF
T1 sequence (Q8BLA8 whole entry): as above

In the case of `O=C(O)C=Cc1ccccc1` [Cinnamic acid, reference compound], the “licking and shaking of the injected hindpaw” value in [1] is on record as “not observed”. Besides, the “activation of mTRPA1” value in test [2] is on record as “did not activate”.
For `COC(=O)c1ccccc1O` [Methyl salicylate], in [3] (600 μM), the “specificity to mTRPA1 when tested against TRPM8 and TRPV1” value is on record as “specific to mTRPA1”. For the same compound, the “increase in intracellular calcium upon application” value in test [3] (FLIPR, mTRPA1 CHO cells) was “sharp increase in intracellular calcium”. Besides, in [4], the “activation of TRPV1-expressing cells, relative to TRPV1 response from saturating amounts of capsaicin” value amounted to 25%.
With `CCCCCCCC/C=C\CCCCCCCC(=O)OC[C@H](CO)OC(C)=O` [OAG, l-Oleoyl-2-acetyl-sn-glycerol], in [5], the “activation of mTRPA1/TRPA1-expressing CHO cells” value is given as “robust response”. Also, in [6], the “response in naïve CHO cells” value was “no response”.
As to `C=CCS[S+]([O-])CC=C` (stereo not drawn) [allicin, diallyl disulfide oxide], the EC50 in test [3] (FLIPR, mTRPA1, read-out: concentration for half maximal activation (EC50)) stood at 1320 nM; in test [9], 1910 nM. Moreover, the “calcium response of TRPA1-expressing CHO cells” value in test [5] is “immediate and strong calcium response”. Moreover, the “calcium response of TRPV1-expressing CHO cells” value in test [7] is “immediate and strong calcium response”. For the same compound, the “response of capsaicin-insensitive neurons” value in test [8] is reported as “never responded”. The “DRG neuron population activated at high concentrations” value in [8] (dilution 1:50 for garlic, 100 μM allicin) was “activated the majority of capsaicin-sensitive DRG neurons”. Besides, the “DRG neuron population activated at low concentrations” value in [8] (dilution 1:500 for garlic, 10 μM allicin) is on record as “activated only the cinnamaldehyde-sensitive neurons”. The “activation of TRPA1-expressing oocytes” value in test [10] is given as “able to activate”.
